Measurements published in US7638283B2, “Amyloid β protein (globular assembly and uses thereof)” (Northwestern University, priority 1997, dated 2009).

Legend:
[1] = test system: hippocampal brain slice cultures; assay: Brain slice assay (LIVE/DEAD cell death); format: cell-based, mouse
Experimental: (§1) An adult mouse is sacrificed by carbon dioxide inhalation, followed by rapid decapitation. The head is emersed in cold, sterile dissection buffer (94 ml Gey's balanced salt solution, pH 7.2, supplemented with 2 mL 0.5M MgCl2, 2 ml 25% glucose, and 2 mL 1.0 M Hepes.), after which the brain is removed and placed on a sterile Sylgard-coated plate. The cerebellum is removed and a mid-line cut is made to separate the cerebral hemispheres. Each hemisphere is sliced separately. The hemisphere is placed with the mid-line cut down and a 30 degree slice from the dorsal side is made to orient the hemisphere. The hemisphere is glued cut side down on the plastic stage of a Campden tissue chopper (previously wiped with ethanol) and emersed in ice cold sterile buffer. Slices of 200 μm thickness are made from a lateral to medial direction, collecting those in which the hippocampus is visible. […] Cell death is measured using the LIVE/DEAD® assay kit (Molecular Probes, Eugene, Oreg.). This a dual-label fluorescence assay in which live cells are detected by the presence of an esterase that cleaves calcein-AM to calcein, resulting in a green fluorescence. Dead cells take up ethidium homodimer, which intercalates with DNA and has a red fluorescence. […] The MetaMorph image analysis system is used to quantify the number and/or area of cells showing green or red fluorescence. […]

primary astrocytes = assay: Activation of primary astrocyte cultures; format: cell-based
fyn kinase = fyn kinase activity in B103 cells; format: cell-based, rat
neuronal cell cultures = assay: Neurotoxicity in neuronal cell cultures; format: cell-based
Experimental: PC12 cells are passaged at 4×10^4 cell/well on a 96-well culture plate and grown for 24 hours in DMEM+10% fetal calf serum+1% S/P/F (streptomycin, penicillin, and fungizone). Plates are treated with 200 μg/mL poly-1-lysine for 2 hours prior to cell plating to enhance cell adhesion. One set of six wells is left untreated and fed with fresh media, while another set of wells is treated with the vehicle control (PBS containing 10% 0.01 N HCl, aged o/n at RT). Positive controls are treated with triton (1%) and Na Azide (0.1%) in normal growth media. Amyloid β oligomers prepared as described in Example 1, with and without inhibitor compounds present are added to the cells for 24 hours. After the 24 hour incubation, MTT (0.5 mg/mL) is added to the cells for 2.5 hours (11 μL of 5 mg/ml stock solubilized in PBS into 100 μL of media). Healthy cells reduce the MTT into a formazan blue colored product. After the incubation with MTT, the media is aspirated and 100 μL of 100% DMSO is added to lyse the cells and dissolve the blue crystals. The plate was incubated for 15 min at RT and read on a plate reader (ELISA) at 550 nm.
HN2 cells are passaged at 4×10^4 cells/well on a 96-well culture plate and grown for 24 hours in DMEM+10% fetal calf serum+1% S/P/F (streptomycin, penicillin, and fungizone). […] The plate is incubated for 15 min at RT and read on a plate reader (ELISA) at 550 nm.

[2] = test system: brain slice cultures lacking a functional fyn gene; assay: Brain slice cultures from mice that lack a functional fyn gene; format: cell-based, mouse; details: compared to vehicle controls
Experimental: as §1

[3] = Neurotoxicity of amyloid β fractions and samples (test system not specified); format: cell-based; details: supernatant compared with unfractionated amyloid β aggregated under literature conditions
hippocampal neurons = assay: Neuronal viability in injected animals (brain slices after the LTP experiment); format: in vivo, mouse; details: 20 nL injected into hippocampal region
Experimental: After the LTP experiment is performed, animals are allowed to remover for various times and then sacrificed using sodium pentobarbitol asesthetic and perfusion with 4% paraformaldehye. For viability studies, times of 3 hours, 24 hours, 3 days, and 7 days are used. The brain is cryoprotected with 30% sucrose and then sectioned ([…]) with a microtome. Sections are placed on slides subbed with gelatin and stained initially with cresyl violet. Cell loss is measured by counting cell bodies in the dentate gyrus, CA3, CA1, and entorhinal cortex and is correlated with dose and time of exposure of ADDLs.

serum starved B103 cells = assay: Cell morphology by phase microscopy; format: cell-based, rat
Experimental: Cultures are grown to low density (50-60% confluence). To initiate the experiment, the cells are serum starved in F12 media for 1 hour. Cells are then incubated for 3 hours with amyloid β oligomers prepared as described in Example 1, with and without inhibitor compounds added to the cells for […]. After 3 hours, cells are examined for morphological differences or fixed for immunofluorescence labeling. Samples are examined using the MetaMorph Image Analysis system and an MRI video camera (Universal Imaging, Inc.).

B103 cells = assay: FACScan assay for binding to intact cells; parameters: species or system rat
Experimental: For flow cytometry, cells are dissociated with 0.1% trypsin and plated at least overnight onto tissue culture plastic at low density. Cells are removed with cold PBS/0.5 mM EDTA, washed three times and resuspended in ice-cold PBS to a final concentration of 500,000 cells/mL. Cells are incubated in cold PBS with amyloid β oligomers prepared as described in Example 1, except that 10% of the amyloid β is an amyloid β 1-42 analog containing biocytin at position 1 replacing aspartate. Oligomers with and without inhibitor compounds present are added to the cells for 24 hours. The cells are washed twice in cold PBS to remove free, unbound amyloid β oligomers and resuspended in a 1:1,000 dilution of avidin conjugated to fluorescein and incubated for one hour at 4° C. with gentle agitation. Cells are analyzed by a Becton-Dickinson Fluorescence Activated Cell Scanner (FACScan). 10,000 or 20,000 events are collected for both forward scatter (size) and fluorescence intensity, and the data are analyzed by Consort 30 software (Becton-Dickinson). An alternative procedure uses amyloid β-specific antibodies and fluorescent secondary antibody instead of avidin, eliminating the need to incorporate 10% of the biotynylated amyloid β analog. FIG. 2 illustrates the ADDL-cell binding FACS analysis, and FIG. 3 illustrates the utility of the FACS assay for identification of ADDL-blocking compounds.

[4] = test system: hippocampus, synaptic activity (LTP); assay: LTP assay in injected animals; format: in vivo, mouse
Text: Injections of intact animals: Mice are anesthesized with urethane and placed in a sterotaxic apparatus. Body temperature is maintained using a heated water jacket pad. The brain surface is exposed through holes in the skull. Bregma and lambda positions for injection into the middle molecular layer of hippocampus are 2 mm posterior to bregma, 1 mm lateral to the midline, and 1.2-1.5 mm ventral to the brain surface. Amyloid β oligomer injections are by nitrogen puff through ˜[…] diameter glass pipettes. Volumes of 20-50 nL of amyloid β oligomer solution (180 nM of amyloid β) are given over the course of an hour. The animal is allowed to rest for varying time periods before the LTP stimulus is given.
LTP in injected animals: Experiments follow the paradigm established Routtenberg and colleagues for LTP in mice (Namgung, et al., 1995). Perforant path stimulation from the entorhinal cortex is used, with recording from the middle molecular layer and the cell body of the dentate gyrus. […] Some sections are placed on slides subbed with gelatin and others are analyzed using a free-floating protocol. […]
Wave forms are analyzed by machine as described previously (Colley, 1990, J. Neurosci.). […]

Row | Substance | neurotoxicity in brain slice cultures ([1]; supernatant of amyloid β 1-42 incubated in F12 at 4° C., Live/Dead fluorescence assay) | activation of astrocytes (primary astrocytes) | mRNA for IL-1, inducible nitric oxide synthase, apo E, Apo J and α1-antichymotrypsin in astrocytes (primary astrocytes) | fyn kinase activity in B103 cells (fyn kinase) | neurotoxicity in neuronal cell cultures (neuronal cell cultures) | neurotoxicity in brain slice cultures from mice lacking a functional fyn gene [2] | neurotoxicity of amyloid β fractions/samples [3] | cell death in brain slices after the LTP experiment (hippocampal neurons) | morphology of serum starved B103 cells (serum starved B103 cells) | receptor binding of ADDLs to B103 cells (B103 cells; 10% biotinylated amyloid β 1-42, fluorescent avidin conjugate, FACS) | LTP consolidation phase, synaptic activity as cell body spike amplitude ([4]; 20 nL injected into hippocampal region 60-70 minutes prior to LTP, over the subsequent 2 hours, compared with control animals) | LTP stimulation phase ([4]; 20 nL injected into hippocampal region of adult mouse 60-70 minutes prior to LTP) | blocking of the neurotoxic effects of ADDLs in the hippocampal brain slice assay ([1]; at 10 μM) | blocking of ADDL binding in the receptor assay (B103 cells; at 10 μM)
1 | ADDLs: amyloid β peptide assembled into non-fibrillar oligomeric structures; soluble globular assemblies of amyloid β 1-42 | highly neurotoxic | become activated | become elevated | activate fyn kinase activity | highly neurotoxic | no increased neurotoxicity | significantly higher neurotoxicity | no cell death had occurred | rapid morphological change | saturable | significant, continuing decline in synaptic activity | identical with saline control injections | – | –
2 | amyloid β 1-40 [reference compound] | – | – | – | – | – | – | – | – | – | – | – | – | capable of blocking the neurotoxic effects of ADDLs | capable of blocking ADDL binding
